Laboratory results: patent publication US20230398130A1, “METHODS AND COMPOSITIONS FOR DIFFERENTIATING STEM CELLS” (Massachusetts Institute of Technology, priority 2020, published 2023)

Key:
ISC-enriched organoids [1] = experiment: Primary screen, 384-well 2.5-D organoid differentiation (ENR+CD, 6 days): basal lysozyme secretion (LYZ.NS); assay type: cell-based, murine; conditions: for Dose.FC.LYZ.NS: FC vs plate median; for Z.LYZ.NS: standard z score; for SSMD.LYZ.NS: strictly standardized mean difference
Source text: (§1) High-throughput screening.

ISC-enriched organoids [2] = experiment: Primary screen, 384-well 2.5-D organoid differentiation (ENR+CD, 6 days): carbachol-induced lysozyme secretion (LYZ.S); assay type: cell-based, murine; conditions: for Dose.FC.LYZ.S: FC vs plate median; for Z.LYZ.S: standard z score; for SSMD.LYZ.S: strictly standardized mean difference
Source text: as §1

ISC-enriched organoids [3] = experiment: Primary screen, 384-well 2.5-D organoid differentiation (ENR+CD, 6 days, Target Selective Inhibitor Library, vs whole-plate median): ATP (CellTiter-Glo 3D, CTG); conditions: for Dose.FC.CTG: FC vs plate median; for SSMD.CTG: strictly standardized mean difference
[4] = Dose 0.08 uM, primary screen, standard z score
[5] = Dose 0.40 uM, primary screen, standard z score
[6] = Dose 2.00 uM, primary screen, standard z score
[7] = Dose 10.00 uM, primary screen, standard z score
[8] = primary screen, 1st of the 4 dose lines of the treatment (dose not given)
[9] = primary screen, 2nd of the 4 dose lines of the treatment (dose not given)
[10] = primary screen, 3rd of the 4 dose lines of the treatment (dose not given)
[11] = primary screen, 4th of the 4 dose lines of the treatment (dose not given)

| SMILES | Dose.FC.LYZ.NS (ISC-enriched organoids [1]; Dose 0.08 uM, primary screen) [log 2 fold change] | Z.LYZ.NS (ISC-enriched organoids [1]; Dose 0.08 uM, primary screen) | Dose.FC.LYZ.NS (ISC-enriched organoids [1]; Dose 0.40 uM, primary screen) [log 2 fold change] | Z.LYZ.NS (ISC-enriched organoids [1]; Dose 0.40 uM, primary screen) | Dose.FC.LYZ.NS (ISC-enriched organoids [1]; Dose 2.00 uM, primary screen) [log 2 fold change] | Z.LYZ.NS (ISC-enriched organoids [1]; Dose 2.00 uM, primary screen) | Dose.FC.LYZ.NS (ISC-enriched organoids [1]; Dose 10.00 uM, primary screen) [log 2 fold change] | Z.LYZ.NS (ISC-enriched organoids [1]; Dose 10.00 uM, primary screen) | Dose.FC.LYZ.S (ISC-enriched organoids [2]; Dose 0.08 uM, primary screen) [log 2 fold change] | Dose.FC.LYZ.S (ISC-enriched organoids [2]; Dose 0.40 uM, primary screen) [log 2 fold change] | Dose.FC.LYZ.S (ISC-enriched organoids [2]; Dose 2.00 uM, primary screen) [log 2 fold change] | Dose.FC.LYZ.S (ISC-enriched organoids [2]; Dose 10.00 uM, primary screen) [log 2 fold change] | Dose.FC.CTG (ISC-enriched organoids [3]; Dose 0.08 uM, primary screen) [log 2 fold change] | Z.CTG (ISC-enriched organoids [3]; [4]) | Dose.FC.CTG (ISC-enriched organoids [3]; Dose 0.40 uM, primary screen) [log 2 fold change] | Z.CTG (ISC-enriched organoids [3]; [5]) | Dose.FC.CTG (ISC-enriched organoids [3]; Dose 2.00 uM, primary screen) [log 2 fold change] | Z.CTG (ISC-enriched organoids [3]; [6]) | Dose.FC.CTG (ISC-enriched organoids [3]; Dose 10.00 uM, primary screen) [log 2 fold change] | Z.CTG (ISC-enriched organoids [3]; [7]) | other results |
| --- | --- | --- | --- | --- | --- | --- | --- | --- | --- | --- | --- | --- | --- | --- | --- | --- | --- | --- | --- | --- | --- |
| Cc1ccc(S(=O)(=O)NC(=O)NN2CC3CCCC3C2)cc1 (stereo not drawn) [Gliclazide] |  |  |  |  |  |  |  |  |  |  |  |  |  |  |  |  |  |  |  |  | Dose.FC.LYZ.NS (ISC-enriched organoids [1]; Dose 10.00 uM, ENR+CD, 6 days): −0.035 log 2 fold change; Dose.FC.LYZ.S (ISC-enriched organoids [2]; Dose 10.00 uM, ENR+CD, 6 days): −0.060 log 2 fold change; Z.CTG (ISC-enriched organoids [3]; Dose 0.08 uM, standard z score of FC): 0.386; Z.CTG (ISC-enriched organoids [3]; Dose 0.40 uM, standard z score of FC): 0.128; Z.CTG (ISC-enriched organoids [3]; Dose 2.00 uM, standard z score of FC): 0.020; Dose.FC.CTG (ISC-enriched organoids [3]; Dose 10.00 uM, ENR+CD, 6 days): −0.092 log 2 fold change; Z.CTG (ISC-enriched organoids [3]; Dose 10.00 uM, standard z score of FC): −0.219 |
| COc1ccc2c(c1)c(C1=C(c3c[nH]c4ccccc34)C(=O)NC1=O)cn2CCCN(C)C [Go 6983] | −0.005 | −0.046 | 0.013 | 0.114 | 0.091 | 0.791 | −0.092 | −0.798 | 0.021 | 0.007 | −0.010 | −0.073 | 0.021 | 0.050 | −0.036 | −0.085 | 0.058 | 0.138 | −0.181 | −0.433 |  |
| Cl.Cl.O=S(=O)(NCCNC/C=C/c1ccc(Br)cc1)c1cccc2cnccc12 [H 89 2HCl] | 0.140 | 1.223 | 0.080 | 0.695 | 0.086 | 0.747 | 0.132 | 1.151 | 0.118 | 0.148 | 0.087 | 0.000 | 0.350 | 0.836 | 0.398 | 0.950 | 0.421 | 1.005 | 0.385 | 0.919 | SSMD.LYZ.NS (ISC-enriched organoids [1]; [8]): 0.995; SSMD.LYZ.NS (ISC-enriched organoids [1]; [9]): 0.816; SSMD.LYZ.NS (ISC-enriched organoids [1]; [10]): 0.521; SSMD.LYZ.NS (ISC-enriched organoids [1]; [11]): 0.374; Z.LYZ.S (ISC-enriched organoids [2]; [8]): 0.764; Z.LYZ.S (ISC-enriched organoids [2]; [9]): 0.955; Z.LYZ.S (ISC-enriched organoids [2]; [10]): 0.565; Z.LYZ.S (ISC-enriched organoids [2]; [11]): −0.001; SSMD.LYZ.S (ISC-enriched organoids [2]; [8]): 0.529; SSMD.LYZ.S (ISC-enriched organoids [2]; [9]): 0.703; SSMD.LYZ.S (ISC-enriched organoids [2]; [10]): 0.329; SSMD.LYZ.S (ISC-enriched organoids [2]; [11]): −0.001; SSMD.CTG (ISC-enriched organoids [3]; [8]): 1.039; SSMD.CTG (ISC-enriched organoids [3]; [9]): 0.952; SSMD.CTG (ISC-enriched organoids [3]; [10]): 0.830; SSMD.CTG (ISC-enriched organoids [3]; [11]): 1.211 |
| CC(C)c1ccc(NC(=O)Cn2cnc3c2c(=O)n(C)c(=O)n3C)cc1 [HC-030031] | 0.063 | 0.547 | 0.033 | 0.291 | −0.007 | −0.057 | −0.047 | −0.411 | 0.090 | 0.097 | −0.035 | 0.077 | 0.082 | 0.195 | 0.191 | 0.457 | −0.008 | −0.019 | −0.241 | −0.575 | SSMD.LYZ.NS (ISC-enriched organoids [1]; [8]): 0.506; SSMD.LYZ.NS (ISC-enriched organoids [1]; [9]): 0.276; SSMD.LYZ.NS (ISC-enriched organoids [1]; [10]): −0.048; SSMD.LYZ.NS (ISC-enriched organoids [1]; [11]): −0.383; Z.LYZ.S (ISC-enriched organoids [2]; [8]): 0.584; Z.LYZ.S (ISC-enriched organoids [2]; [9]): 0.627; Z.LYZ.S (ISC-enriched organoids [2]; [10]): −0.225; Z.LYZ.S (ISC-enriched organoids [2]; [11]): 0.499; SSMD.LYZ.S (ISC-enriched organoids [2]; [8]): 0.499; SSMD.LYZ.S (ISC-enriched organoids [2]; [9]): 0.539; SSMD.LYZ.S (ISC-enriched organoids [2]; [10]): −0.200; SSMD.LYZ.S (ISC-enriched organoids [2]; [11]): 0.322; SSMD.CTG (ISC-enriched organoids [3]; [8]): 0.200; SSMD.CTG (ISC-enriched organoids [3]; [9]): 0.606; SSMD.CTG (ISC-enriched organoids [3]; [10]): −0.025; SSMD.CTG (ISC-enriched organoids [3]; [11]): −0.715 |
| O=C1[C@H](Cc2ccc(O)cc2)N2C(=O)CCN(C(=O)NCc3ccccc3)[C@H]2CN1Cc1cccc2ccccc12 [ICG-001] | 0.037 | 0.324 | 0.037 | 0.321 | 0.045 | 0.396 | −0.125 | −1.093 | 0.163 | 0.204 | 0.017 | −0.124 | 0.104 | 0.249 | 0.104 | 0.248 | 0.143 | 0.343 | −0.416 | −0.993 | SSMD.LYZ.NS (ISC-enriched organoids [1]; [8]): 0.280; SSMD.LYZ.NS (ISC-enriched organoids [1]; [9]): 0.339; SSMD.LYZ.NS (ISC-enriched organoids [1]; [10]): 0.413; SSMD.LYZ.NS (ISC-enriched organoids [1]; [11]): −1.162; Z.LYZ.S (ISC-enriched organoids [2]; [8]): 1.054; Z.LYZ.S (ISC-enriched organoids [2]; [9]): 1.318; Z.LYZ.S (ISC-enriched organoids [2]; [10]): 0.109; Z.LYZ.S (ISC-enriched organoids [2]; [11]): −0.802; SSMD.LYZ.S (ISC-enriched organoids [2]; [8]): 0.711; SSMD.LYZ.S (ISC-enriched organoids [2]; [9]): 0.796; SSMD.LYZ.S (ISC-enriched organoids [2]; [10]): 0.122; SSMD.LYZ.S (ISC-enriched organoids [2]; [11]): −0.824; SSMD.CTG (ISC-enriched organoids [3]; [8]): 0.298; SSMD.CTG (ISC-enriched organoids [3]; [9]): 0.360; SSMD.CTG (ISC-enriched organoids [3]; [10]): 0.530; SSMD.CTG (ISC-enriched organoids [3]; [11]): −0.731 |
